The source made the active and inactive calls.

Assay [1] deals with T1, Replicative DNA helicase DnaB (Mycobacterium tuberculosis, UniProt P9WMR3).
T1 sequence (P9WMR3 whole entry): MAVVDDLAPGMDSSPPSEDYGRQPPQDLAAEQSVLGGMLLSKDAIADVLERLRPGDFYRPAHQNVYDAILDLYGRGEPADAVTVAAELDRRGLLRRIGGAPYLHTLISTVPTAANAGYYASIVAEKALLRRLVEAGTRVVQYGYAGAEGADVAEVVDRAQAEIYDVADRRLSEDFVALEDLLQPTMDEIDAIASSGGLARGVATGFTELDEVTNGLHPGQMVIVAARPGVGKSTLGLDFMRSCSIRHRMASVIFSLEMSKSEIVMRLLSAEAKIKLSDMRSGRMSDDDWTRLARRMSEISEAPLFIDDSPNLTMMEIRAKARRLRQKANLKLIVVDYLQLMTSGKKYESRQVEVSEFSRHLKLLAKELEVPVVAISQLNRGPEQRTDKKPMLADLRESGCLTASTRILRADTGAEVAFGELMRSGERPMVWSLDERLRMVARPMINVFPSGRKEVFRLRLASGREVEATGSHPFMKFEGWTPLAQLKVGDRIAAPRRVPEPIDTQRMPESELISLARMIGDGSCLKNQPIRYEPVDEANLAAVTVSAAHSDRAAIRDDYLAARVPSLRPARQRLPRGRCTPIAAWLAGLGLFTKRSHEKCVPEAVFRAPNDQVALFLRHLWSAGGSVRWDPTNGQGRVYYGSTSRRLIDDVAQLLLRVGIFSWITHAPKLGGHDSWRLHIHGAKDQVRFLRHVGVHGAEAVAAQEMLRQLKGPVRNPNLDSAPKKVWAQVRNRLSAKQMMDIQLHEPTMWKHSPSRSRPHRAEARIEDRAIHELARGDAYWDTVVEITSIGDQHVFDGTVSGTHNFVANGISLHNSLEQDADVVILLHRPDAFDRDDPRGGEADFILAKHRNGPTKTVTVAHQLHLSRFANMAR
Briefly: DnaB intein splicing inhibitors, dose response, biochemical, cell-free fluorescence (AID 449749). It is filed as functional.

In assay [2] the target is T2, Protein RecA (Mycobacterium tuberculosis, UniProt P9WHJ3).
T2 sequence (P9WHJ3 whole entry): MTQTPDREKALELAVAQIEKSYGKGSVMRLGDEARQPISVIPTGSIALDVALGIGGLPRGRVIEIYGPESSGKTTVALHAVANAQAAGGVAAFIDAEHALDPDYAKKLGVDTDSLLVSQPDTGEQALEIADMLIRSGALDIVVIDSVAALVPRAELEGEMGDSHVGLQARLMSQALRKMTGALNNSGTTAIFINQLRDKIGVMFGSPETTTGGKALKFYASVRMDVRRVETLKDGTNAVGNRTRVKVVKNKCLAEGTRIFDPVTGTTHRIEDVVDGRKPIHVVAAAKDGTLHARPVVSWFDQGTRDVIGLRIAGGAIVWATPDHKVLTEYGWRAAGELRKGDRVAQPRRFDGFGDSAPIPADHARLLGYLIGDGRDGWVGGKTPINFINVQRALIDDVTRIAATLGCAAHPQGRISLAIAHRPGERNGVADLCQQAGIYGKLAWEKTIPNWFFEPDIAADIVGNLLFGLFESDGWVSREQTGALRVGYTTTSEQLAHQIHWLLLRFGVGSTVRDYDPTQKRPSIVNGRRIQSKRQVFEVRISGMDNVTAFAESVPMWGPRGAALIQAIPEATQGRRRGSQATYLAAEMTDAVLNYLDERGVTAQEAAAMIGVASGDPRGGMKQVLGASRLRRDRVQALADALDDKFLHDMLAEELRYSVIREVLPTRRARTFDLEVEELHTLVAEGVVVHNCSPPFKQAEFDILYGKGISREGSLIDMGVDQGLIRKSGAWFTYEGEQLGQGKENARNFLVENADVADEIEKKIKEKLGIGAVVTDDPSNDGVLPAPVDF
Description: Fluorescence Cell-Free Homogeneous Dose Retest to Identify Inhibitors of RecA-Intein Splicing Activity. [Related pubchem assays (depositor defined):AID2097, AID2223, AID489010, AID492950]. It counts as functional.

Assay [3] concerns INS1. Description: INS-1E survival protection against cytokine death – cell-based, luminescence, retest, dose response (AID 449756).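 Note: cell death triggered by IL-1 beta plus TNF-alpha plus IFN-gamma mixture; protective hits raise ATP signal compared with cytokine alone wells.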 Particulars: Rattus norvegicus. It counts as functional.
Assay [4] has as its target T3, Tyrosyl-DNA phosphodiesterase 2 (Homo sapiens, UniProt O95551).
T3 sequence (O95551 whole entry): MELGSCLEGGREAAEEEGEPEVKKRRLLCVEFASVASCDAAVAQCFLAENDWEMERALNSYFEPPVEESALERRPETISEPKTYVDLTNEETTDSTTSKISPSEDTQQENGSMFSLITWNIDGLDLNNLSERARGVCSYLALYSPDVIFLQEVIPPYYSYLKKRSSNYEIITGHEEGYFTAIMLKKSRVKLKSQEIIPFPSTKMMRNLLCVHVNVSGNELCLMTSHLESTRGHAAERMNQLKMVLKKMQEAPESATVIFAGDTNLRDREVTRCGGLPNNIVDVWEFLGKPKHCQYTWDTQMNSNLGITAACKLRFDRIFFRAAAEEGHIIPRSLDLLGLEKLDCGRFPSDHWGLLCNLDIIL
Description: potency against TDP2 phosphodiesterase activity – biochemical, epi absorbance, IC50, dose response (AID 743297).

Turning to `COc1ccc(NC(=O)/C(Cl)=C(/Cl)[S+]([O-])Cc2ccccc2)cn1` (stereo not given), the AC50 (commonly the concentration giving half of the maximal activity seen) is 3.35 µM (active) in assay [1] and 1.1 µM (active) in assay [3]. In addition, the EC50 – broadly, the concentration giving half of the maximal effect – in assay [2] is 3.14 µM (active).
In the case of `Nc1ccc(N2CCCCC2)c2nonc12`, the AC50 in assay [1] is 5.14 µM (active). The EC50 in assay [2] was 2.76 µM (active). Also, the IC50 (usually the concentration that gives 50% inhibition) in assay [4] is 79.7 µM (inactive).
In the case of `Cc1ccc(S(=O)(=O)/N=C2\C=C(Nc3cccc(C(=O)O)c3)C(=O)c3ccccc32)c(C)c1`, the figures for the AC50 in assay [1] and in assay [3] were 27 µM (active) and 6.82 µM (active), respectively. The EC50 in assay [2] was 15 µM (active). In assay [4], the 50% inhibitory concentration (IC50) was 2.58 µM (active).

For the origin of these results see ChEMBL document CHEMBL1201862, “PubChem BioAssay data set” (2004).
